4 substances from patent publication US20150037255A1, “PHTHALOCYANINE DYE-CONTAINING CONTRAST AGENT FOR PHOTOACOUSTIC IMAGING” (CANON KABUSHIKI KAISHA, priority 2013, published 2015) can be followed below.

The data set is described as follows: Hydrophobicity evaluation of hydrophobic metal phthalocyanine dye by TLC (Rf value). It is filed as physicochemical. The following applies: TLC glass plate RP-18, methanol containing 1% by weight lithium chloride; value of the dye used. As to the method:
To compare the hydrophobicities of hydrophobic metal phthalocyanine dyes, evaluation was carried out using a thin-layer liquid chromatography (hereinafter sometimes abbreviated as TLC) method.
A TLC glass plate, RP-18 (from Merck & Co., Inc.), was used as a development plate, and a methanol solution containing 1% by weight of lithium chloride was used as a development solvent.
According to an established method, a dye solution was spotted on the starting line and the relative migration distance (hereinafter sometimes abbreviated as Rf value) was calculated based on the following equation. Rf value=the distance from the starting line to the center of the spot of the component/the distance from the starting line to the top of the solvent
In the case of “Cobalt 2,9,16,23-tetra-tert-butyl-29H,31H-phthalocyanine”, the “Rf Value” is 0.08.

As for “tert-butyl silicon-[bis trimethylsiloxy]-phthalocyanine”, the “Rf Value” turned out to be 0.12.

For “Copper (II) 2,9,16,23-tetra-tert-butyl-29H,31H-phthalocyanine”, the “Rf Value” is recorded as 0.06.

Take “Zinc 2,9,16,23-tetra-tert-butyl-29H,31H-phthalocyanine”: the “Rf Value” stood at 0.10.
